The experiment relates to P388 leukemia ip, CD2F1 mice, survival T/C. The experiment in a line: NCI In Vivo Anticancer Drug Screen. Data for tumor model P388 Leukemia (intraperitoneal) in CD2F1 (CDF1) mice. As to conditions: endpoint: median survival time, higher = longer survival. An outline of the steps:
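Mice carrying the transplanted tumor received test compound or vehicle. Survival was recorded in each group, and the value is the treated-group measurement divided by that of the vehicle-treated control group.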

[1] abbreviates: dose: 50.0 mg/kg/injection, schedule: Q01DX005 (ip), vehicle: saline.
Where [2] appears, read: dose: 100.0 mg/kg/injection, schedule: Q01DX005 (ip), vehicle: saline.
Setting [3] is: dose: 200.0 mg/kg/injection, schedule: Q01DX005 (ip), vehicle: saline.
[4] abbreviates: dose: 12.5 mg/kg/injection, schedule: Q01DX009 (ip), vehicle: Klucel (hydroxypropylcellulose) (HPC).
Setting [5] is: dose: 25.0 mg/kg/injection, schedule: Q01DX009 (ip), vehicle: Klucel (hydroxypropylcellulose) (HPC).
The mark [6] stands for this setting: dose: 50.0 mg/kg/injection, schedule: Q01DX009 (ip), vehicle: Klucel (hydroxypropylcellulose) (HPC).

Values joined by “and” are separate entries in the source; they are usually repeats but may differ in a detail not shown here. Equal entries are not always repeated. Toxic doses and inconclusive results are not listed.

With `c1ccc([P+](Cc2ccc(C[P+](c3ccccc3)(c3ccccc3)c3ccccc3)cc2)(c2ccccc2)c2ccccc2)cc1`, the T/C is 90 % of control (dose: 0.07 mg/kg/injection, schedule: Q01DX009 (ip), vehicle: saline sonified); 95 % of control (dose: 0.15 mg/kg/injection, schedule: Q01DX009 (ip), vehicle: saline sonified); 90 % of control (dose: 0.3 mg/kg/injection, schedule: Q01DX009 (ip), vehicle: saline sonified); 100 % of control (dose: 0.6 mg/kg/injection, schedule: Q01DX009 (ip), vehicle: saline sonified).

With `CCN(CC)CCOc1c(Cl)cc(Cl)cc1Cl`, the T/C is 93 % of control (dose: 50.0 mg/kg/injection, schedule: Q01DX005 (ip), vehicle: saline with Tween-80); 111 % of control (dose: 100.0 mg/kg/injection, schedule: Q01DX005 (ip), vehicle: saline with Tween-80); 111 % of control (dose: 200.0 mg/kg/injection, schedule: Q01DX005 (ip), vehicle: saline with Tween-80).

For the compound `COCC1OC1COC` (centres undefined), the T/C under setting [1] is 107 % of control, the T/C under setting [2] is 104 % of control and the T/C under setting [3] is 106 % of control.

As for `N/N=C(/c1ccc(Cl)cc1)N1CCOCC1`, the T/C is, setting by setting: (dose: 100.0 mg/kg/injection, schedule: Q04DX003 (ip), vehicle: saline with Tween-80) 103 % of control; (dose: 200.0 mg/kg/injection, schedule: Q04DX003 (ip), vehicle: saline with Tween-80) 103 % of control; (dose: 400.0 mg/kg/injection, schedule: Q04DX003 (ip), vehicle: saline with Tween-80) 98 % of control.

As for `C[N+](C)(C)CCC[N+]1(C)CC2CCCCC2C1` (centres undefined), the T/C under setting [1] is 107 % of control, the T/C under setting [2] is 98 % of control and the T/C under setting [3] is 101 % of control.

As for `CN=NNc1ccc([N+](=O)[O-])cc1`, the T/C by setting is: under setting [4], 98 % of control and 94 % of control; under setting [5], 103 % of control and 109 % of control; under setting [6], 108 % of control and 111 % of control; (dose: 100.0 mg/kg/injection, schedule: Q01DX009 (ip), vehicle: Klucel (hydroxypropylcellulose) (HPC)) 112 % of control; (dose: 200.0 mg/kg/injection, schedule: Q01DX009 (ip), vehicle: Klucel (hydroxypropylcellulose) (HPC)) 167 % of control.

In the case of `CCc1cccc(CC)c1-n1nnc(C(=O)c2ccccc2)c1C(=O)OC`, the T/C (dose: 60.0 mg/kg/injection, schedule: Q01DX005 (ip), vehicle: Klucel + Tween-80) is 100 % of control; the T/C (dose: 120.0 mg/kg/injection, schedule: Q01DX005 (ip), vehicle: Klucel + Tween-80) was 109 % of control; the T/C (dose: 240.0 mg/kg/injection, schedule: Q01DX005 (ip), vehicle: Klucel + Tween-80) was 102 % of control.

On to `[N-]=[N+]=Nc1ccc(Nc2c3ccccc3nc3ccccc23)cc1`, for which the T/C was 112 % of control and 98 % of control under setting [4]; 101 % of control and 114 % of control under setting [5]; 117 % of control and 122 % of control under setting [6].

As for `N#Cc1ccc(OC(=O)Nc2cc(Cl)cc(Cl)c2)cc1`, the T/C (dose: 60.0 mg/kg/injection, schedule: Q01DX005 (ip), vehicle: saline with Tween-80) is 89 % of control; the T/C (dose: 120.0 mg/kg/injection, schedule: Q01DX005 (ip), vehicle: saline with Tween-80) was 106 % of control; the T/C (dose: 240.0 mg/kg/injection, schedule: Q01DX005 (ip), vehicle: saline with Tween-80) was 101 % of control.

On to `c1csc(-c2cc(-c3cc(-c4cccs4)[nH]n3)n[nH]2)c1`, for which the T/C was 102 % of control (dose: 60.0 mg/kg/injection, schedule: Q01DX005 (ip), vehicle: Klucel (hydroxypropylcellulose) (HPC)); 96 % of control (dose: 120.0 mg/kg/injection, schedule: Q01DX005 (ip), vehicle: Klucel (hydroxypropylcellulose) (HPC)); 90 % of control (dose: 240.0 mg/kg/injection, schedule: Q01DX005 (ip), vehicle: Klucel (hydroxypropylcellulose) (HPC)).

For `COC(=O)/C=C/c1cccc[n+]1[O-]`, the T/C is, setting by setting: (dose: 25.0 mg/kg/injection, schedule: Q01DX005 (ip), vehicle: water) 107 % of control; (dose: 50.0 mg/kg/injection, schedule: Q01DX005 (ip), vehicle: water) 107 % of control; (dose: 100.0 mg/kg/injection, schedule: Q01DX005 (ip), vehicle: water) 109 % of control; (dose: 200.0 mg/kg/injection, schedule: Q01DX005 (ip), vehicle: water) 107 % of control.

Regarding `CCCCNC(C)C1(O)Cc2c(O)c3c(c(O)c2C(OC2CC(N)C(O)C(C)O2)C1)C(=O)c1c(OC)cccc1C3=O` (centres undefined), the T/C was 111 % of control (dose: 0.62 mg/kg/injection, schedule: Q01DX009 (ip), vehicle: water); 158 % of control and 161 % of control (dose: 10.0 mg/kg/injection, schedule: Q01DX009 (ip), vehicle: water); 172 % of control and 181 % of control (dose: 20.0 mg/kg/injection, schedule: Q01DX009 (ip), vehicle: water); 224 % of control (dose: 40.0 mg/kg/injection, schedule: Q01DX009 (ip), vehicle: water); 218 % of control (dose: 80.0 mg/kg/injection, schedule: Q01DX009 (ip), vehicle: water).

Turning to `CO/C=C1\CC(=O)N(c2cccc([N+](=O)[O-])c2)C1=O`, the T/C runs as follows: (dose: 25.0 mg/kg/injection, schedule: Q04DX003 (ip), vehicle: saline) 97 % of control; (dose: 50.0 mg/kg/injection, schedule: Q04DX003 (ip), vehicle: saline) 96 % of control; (dose: 100.0 mg/kg/injection, schedule: Q04DX003 (ip), vehicle: saline) 94 % of control and 96 % of control; (dose: 200.0 mg/kg/injection, schedule: Q04DX003 (ip), vehicle: saline) 90 % of control; (dose: 400.0 mg/kg/injection, schedule: Q04DX003 (ip), vehicle: saline) 97 % of control.

Regarding `COC(=O)C1c2cc3c(c(O)c2C(O)CC1(C)O)C(=O)c1c(O)cc2c(c1C3=O)OC1OC2(C)C(O)C(N(C)C)C1O` (centres undefined), the T/C is 100 % of control (dose: 25.0 mg/kg/injection, schedule: Q01DX010 (ip), vehicle: saline); 90 % of control (dose: 50.0 mg/kg/injection, schedule: Q01DX010 (ip), vehicle: saline); 100 % of control (dose: 100.0 mg/kg/injection, schedule: Q01DX010 (ip), vehicle: saline); 100 % of control (dose: 200.0 mg/kg/injection, schedule: Q01DX010 (ip), vehicle: saline).

As for `CC(Br)CCc1ccccc1Br` (centres undefined), the T/C is, setting by setting: (dose: 50.0 mg/kg/injection, schedule: Q01DX005 (ip), vehicle: Klucel (hydroxypropylcellulose) (HPC)) 101 % of control; (dose: 100.0 mg/kg/injection, schedule: Q01DX005 (ip), vehicle: Klucel (hydroxypropylcellulose) (HPC)) 93 % of control; (dose: 200.0 mg/kg/injection, schedule: Q01DX005 (ip), vehicle: Klucel (hydroxypropylcellulose) (HPC)) 97 % of control.
